Laboratory results published in PubChem BioAssay AID2060501 (Molecular Pharmacology Branch, DTP, NCI, 2025).

System: 282377-053-R-J1-PDC complex spheroids, viability
Assay: Anticancer human tumor 282377-053-R-J1-PDC patient-derived colon adenocarcinoma cell line growth inhibition [GQUAD]
Details: for IC50: curve of first compound; for viability, T/C: stronger effect = lower value; active means viability on the fitted dose curve at most 10% of control; inactive means the rest
Summary of the method: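 Tumor cells were grown as complex spheroids with HUVEC endothelial cells and mesenchymal stem cells as stroma. G-quadruplex stabilizers were combined with targeted agents over half-log dilutions from near the clinical Cmax, or from 10 microM.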

[1] = second compound 0.0316 µM, first compound 0.000999 µM
[2] = second compound 0.0316 µM, first compound 0.00316 µM
[3] = second compound 0.0316 µM, first compound 0.00999 µM
[4] = second compound 0.0316 µM, first compound 0.0316 µM
[5] = second compound 0.0316 µM, first compound 0.0999 µM
[6] = second compound 0.0316 µM, first compound 0.316 µM
[7] = second compound 0.1 µM, first compound 0.000999 µM
[8] = second compound 0.1 µM, first compound 0.00316 µM
[9] = second compound 0.1 µM, first compound 0.00999 µM
[10] = second compound 0.1 µM, first compound 0.0316 µM
[11] = second compound 0.1 µM, first compound 0.0999 µM
[12] = second compound 0.1 µM, first compound 0.316 µM
[13] = second compound 0.316 µM, first compound 0.000999 µM
[14] = second compound 0.316 µM, first compound 0.00316 µM
[15] = second compound 0.316 µM, first compound 0.00999 µM
[16] = second compound 0.316 µM, first compound 0.0316 µM
[17] = second compound 0.316 µM, first compound 0.0999 µM
[18] = second compound 0.316 µM, first compound 0.316 µM
[19] = second compound 1 µM, first compound 0.000999 µM
[20] = second compound 1 µM, first compound 0.00316 µM
[21] = second compound 1 µM, first compound 0.00999 µM
[22] = second compound 1 µM, first compound 0.0316 µM
[23] = second compound 1 µM, first compound 0.0999 µM
[24] = second compound 1 µM, first compound 0.316 µM
[25] = second compound 3.16 µM, first compound 0.000999 µM
[26] = second compound 3.16 µM, first compound 0.00316 µM
[27] = second compound 3.16 µM, first compound 0.00999 µM
[28] = second compound 3.16 µM, first compound 0.0316 µM
[29] = second compound 3.16 µM, first compound 0.0999 µM
[30] = second compound 3.16 µM, first compound 0.316 µM
[31] = second compound 10 µM, first compound 0.000999 µM
[32] = second compound 10 µM, first compound 0.00316 µM
[33] = second compound 10 µM, first compound 0.00999 µM
[34] = second compound 10 µM, first compound 0.0316 µM
[35] = second compound 10 µM, first compound 0.0999 µM
[36] = second compound 10 µM, first compound 0.316 µM
[37] = second compound 0.0316 µM, first compound 0.1 µM
[38] = second compound 0.0316 µM, first compound 1 µM
[39] = second compound 0.0316 µM, first compound 3.16 µM
[40] = second compound 0.0316 µM, first compound 10 µM
[41] = second compound 0.1 µM, first compound 0.1 µM
[42] = second compound 0.1 µM, first compound 1 µM
[43] = second compound 0.1 µM, first compound 3.16 µM
[44] = second compound 0.1 µM, first compound 10 µM
[45] = second compound 0.316 µM, first compound 0.1 µM
[46] = second compound 0.316 µM, first compound 1 µM
[47] = second compound 0.316 µM, first compound 3.16 µM
[48] = second compound 0.316 µM, first compound 10 µM
[49] = second compound 1 µM, first compound 0.1 µM
[50] = second compound 1 µM, first compound 1 µM
[51] = second compound 1 µM, first compound 3.16 µM
[52] = second compound 1 µM, first compound 10 µM
[53] = second compound 3.16 µM, first compound 0.1 µM
[54] = second compound 3.16 µM, first compound 1 µM
[55] = second compound 3.16 µM, first compound 3.16 µM
[56] = second compound 3.16 µM, first compound 10 µM
[57] = second compound 10 µM, first compound 0.1 µM
[58] = second compound 10 µM, first compound 1 µM
[59] = second compound 10 µM, first compound 3.16 µM
[60] = second compound 10 µM, first compound 10 µM
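Further: spheroids exposed to compounds for 7 days before readout.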
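Wherever viability, T/C is given: percent of vehicle DMSO control viability with 100% = untreated-like growth.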

CC[C@@]1(O)C(=O)OCc2c1cc1n(c2=O)Cc2cc3c(CN(C)C)c(O)ccc3nc2-1 + Cc1cnc(CNC(=O)c2c(=O)c3ccc(N4CCCN(C)CC4)nc3n3c2sc2ccccc23)cn1
115 nM: IC50 (second compound 1 µM)
10.8 nM: IC50 (second compound 3.16 µM)
< 0.999 nM: IC50 (second compound 10 µM)
> 316 nM: IC50 (second compound 0.0316 µM) | IC50 (second compound 0.1 µM) | IC50 (second compound 0.316 µM)
inactive: viability, T/C [1] 136% | viability, T/C [2] 115% | viability, T/C [3] 125% | viability, T/C [4] 107% | viability, T/C [5] 79.7% | viability, T/C [6] 66.7% | viability, T/C [7] 110% | viability, T/C [8] 116% | viability, T/C [9] 89.5% | viability, T/C [10] 90.9% | viability, T/C [11] 84.2% | viability, T/C [12] 73.1% | viability, T/C [13] 96.3% | viability, T/C [14] 87.3% | viability, T/C [15] 86.4% | viability, T/C [16] 88.6% | viability, T/C [17] 71% | viability, T/C [18] 57.7% | viability, T/C [19] 72.4% | viability, T/C [20] 66.6% | viability, T/C [21] 58.3% | viability, T/C [22] 50.9% | viability, T/C [23] 53.1% | viability, T/C [24] 47.5% | viability, T/C [25] 54.1% | viability, T/C [26] 56.6% | viability, T/C [27] 50.1% | viability, T/C [28] 41.8% | viability, T/C [29] 51.3% | viability, T/C [30] 47.3% | viability, T/C [31] 46.1% | viability, T/C [32] 50.2% | viability, T/C [33] 49.8% | viability, T/C [34] 49.2% | viability, T/C [35] 43.3% | viability, T/C [36] 48.6%

Cc1[nH]c2ccccc2c1CCNCc1ccc(/C=C/C(=O)NO)cc1 + CN(C)c1ccc(Nc2c3ccc(NC(=O)CCN4CCCC4)cc3nc3cc(NC(=O)CCN4CCCC4)ccc23)cc1
inactive: viability, T/C [1] 106% | viability, T/C [2] 91.1% | viability, T/C [3] 109% | viability, T/C [4] 110% | viability, T/C [5] 106% | viability, T/C [7] 97.3% | viability, T/C [8] 108% | viability, T/C [9] 114% | viability, T/C [10] 89.3% | viability, T/C [11] 105% | viability, T/C [13] 91.8% | viability, T/C [14] 86.4% | viability, T/C [15] 91.4% | viability, T/C [16] 116% | viability, T/C [17] 99.6% | viability, T/C [19] 90.2% | viability, T/C [20] 98.5% | viability, T/C [21] 108% | viability, T/C [22] 121% | viability, T/C [23] 103% | viability, T/C [25] 92.9% | viability, T/C [26] 95.1% | viability, T/C [27] 101% | viability, T/C [28] 123% | viability, T/C [29] 89.8% | viability, T/C [31] 78.5% | viability, T/C [32] 103% | viability, T/C [33] 94.6% | viability, T/C [34] 92.8% | viability, T/C [35] 73.6%
189 nM: IC50 (second compound 0.0316 µM) | IC50 (second compound 0.1 µM) | IC50 (second compound 1 µM)
active: viability, T/C [6] 6.18% | viability, T/C [12] 7.41% | viability, T/C [18] 3.85% | viability, T/C [24] 7.41% | viability, T/C [30] 6.57% | viability, T/C [36] 3.92%
147 nM: IC50 (second compound 10 µM)
173 nM: IC50 (second compound 3.16 µM)
179 nM: IC50 (second compound 0.316 µM)

CC1COCCN1c1cc(C2(S(C)(=N)=O)CC2)nc(-c2ccnc3[nH]ccc23)n1 (stereo not drawn) + Cc1[nH]c2ccc(F)cc2c1-c1nc2c3cccnc3c3ncccc3c2[nH]1
< 31.6 nM: IC50 (second compound 10 µM)
8740 nM: IC50 (second compound 0.1 µM)
4980 nM: IC50 (second compound 1 µM)
inactive: viability, T/C [4] 85.5% | viability, T/C [37] 83.7% | viability, T/C [6] 101% | viability, T/C [38] 81.8% | viability, T/C [39] 78.5% | viability, T/C [40] 55.6% | viability, T/C [10] 90% | viability, T/C [41] 91.8% | viability, T/C [12] 82% | viability, T/C [42] 94.8% | viability, T/C [43] 61.8% | viability, T/C [44] 48.5% | viability, T/C [16] 94.5% | viability, T/C [45] 97.3% | viability, T/C [18] 65.4% | viability, T/C [46] 69.5% | viability, T/C [47] 84.5% | viability, T/C [48] 49.6% | viability, T/C [22] 100% | viability, T/C [49] 81.4% | viability, T/C [24] 87.3% | viability, T/C [50] 86.2% | viability, T/C [51] 57.7% | viability, T/C [52] 38.1% | viability, T/C [28] 65.2% | viability, T/C [53] 71% | viability, T/C [30] 56.2% | viability, T/C [54] 47.8% | viability, T/C [55] 31.9% | viability, T/C [56] 10.4% | viability, T/C [34] 41.6% | viability, T/C [57] 41% | viability, T/C [36] 49.8% | viability, T/C [58] 29.5% | viability, T/C [59] 18.1%
active: viability, T/C [60] 6.17%
822 nM: IC50 (second compound 3.16 µM)
> 10000 nM: IC50 (second compound 0.0316 µM) | IC50 (second compound 0.316 µM)

CC1COCCN1c1cc(-c2ccnn2C)c2ccnc(-c3ccn[nH]3)c2n1 (stereo not drawn) + Cc1[nH]c2ccc(F)cc2c1-c1nc2c3cccnc3c3ncccc3c2[nH]1
40 nM: IC50 (second compound 3.16 µM)
659 nM: IC50 (second compound 0.0316 µM)
inactive: viability, T/C [4] 83.8% | viability, T/C [37] 82.6% | viability, T/C [6] 73.3% | viability, T/C [38] 36.4% | viability, T/C [39] 27.5% | viability, T/C [40] 20.9% | viability, T/C [10] 79.3% | viability, T/C [41] 85% | viability, T/C [12] 56.5% | viability, T/C [42] 37.3% | viability, T/C [43] 24.2% | viability, T/C [44] 19.7% | viability, T/C [16] 103% | viability, T/C [45] 77.5% | viability, T/C [18] 49.4% | viability, T/C [46] 37.7% | viability, T/C [47] 30.5% | viability, T/C [48] 17.6% | viability, T/C [22] 87.2% | viability, T/C [49] 79.3% | viability, T/C [24] 59% | viability, T/C [50] 31.9% | viability, T/C [51] 21.5% | viability, T/C [52] 18.8% | viability, T/C [28] 52.9% | viability, T/C [53] 38.6% | viability, T/C [30] 12.8% | viability, T/C [34] 35.6% | viability, T/C [57] 23.9% | viability, T/C [36] 9.76%
< 31.6 nM: IC50 (second compound 10 µM)
460 nM: IC50 (second compound 1 µM)
active: viability, T/C [54] 8.91% | viability, T/C [55] 4.88% | viability, T/C [56] 4.03% | viability, T/C [58] 5.71% | viability, T/C [59] 3.51% | viability, T/C [60] 2.86%
400 nM: IC50 (second compound 0.316 µM)
506 nM: IC50 (second compound 0.1 µM)
